Reference: paper PMC11654702, “Mechanisms underlying modulation of human GlyRα3 by Zn^2+ and pH” (Science Advances, 2024)

How the values were obtained:
GlyRα3 = molecular target: T1, GlyRα3 (Homo sapiens, UniProt O75311); test: cryo-EM structures with glycine density; EC50 by two-electrode voltage clamp in Xenopus oocytes; type: cell-based
T1 construct: gene GLRA3; full-length, C-terminal thrombin site and 8x histidine tag, homopentamer in peptidisc (cryo-EM); full-length in Xenopus oocytes (TEVC)
T1 sequence (O75311 34-464): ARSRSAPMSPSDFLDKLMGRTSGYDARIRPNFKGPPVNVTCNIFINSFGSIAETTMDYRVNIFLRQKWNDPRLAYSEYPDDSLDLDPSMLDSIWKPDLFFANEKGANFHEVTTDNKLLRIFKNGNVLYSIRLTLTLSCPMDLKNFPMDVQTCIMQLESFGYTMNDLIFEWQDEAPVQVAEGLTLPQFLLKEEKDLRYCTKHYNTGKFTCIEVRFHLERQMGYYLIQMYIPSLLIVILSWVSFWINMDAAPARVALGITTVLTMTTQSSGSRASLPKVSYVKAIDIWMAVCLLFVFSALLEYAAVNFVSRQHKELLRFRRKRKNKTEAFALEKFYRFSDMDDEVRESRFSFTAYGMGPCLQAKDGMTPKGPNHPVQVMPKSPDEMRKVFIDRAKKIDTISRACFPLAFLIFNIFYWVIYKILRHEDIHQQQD

[1] = molecular target: the molecule itself; test: cryo-EM structure; GlyRα3 in peptidisc, 0.3 to 1 mg/ml, 20 mM Hepes, 150 mM NaCl, pH 8.0 or pH 6.4; 0.1 or 1 mM glycine, without or with 1 or 100 μM ZnCl2; final maps refined with C5 symmetry

`NCC(=O)O` [glycine] was tested, and the EC50 (GlyRα3) was 213 ± 13 µM.

B1: full-length human GlyRα3 (receptor, UniProt O75311 34-464, looked up)
chain: ARSRSAPMSPSDFLDKLMGRTSGYDARIRPNFKGPPVNVTCNIFINSFGSIAETTMDYRVNIFLRQKWNDPRLAYSEYPDDSLDLDPSMLDSIWKPDLFFANEKGANFHEVTTDNKLLRIFKNGNVLYSIRLTLTLSCPMDLKNFPMDVQTCIMQLESFGYTMNDLIFEWQDEAPVQVAEGLTLPQFLLKEEKDLRYCTKHYNTGKFTCIEVRFHLERQMGYYLIQMYIPSLLIVILSWVSFWINMDAAPARVALGITTVLTMTTQSSGSRASLPKVSYVKAIDIWMAVCLLFVFSALLEYAAVNFVSRQHKELLRFRRKRKNKTEAFALEKFYRFSDMDDEVRESRFSFTAYGMGPCLQAKDGMTPKGPNHPVQVMPKSPDEMRKVFIDRAKKIDTISRACFPLAFLIFNIFYWVIYKILRHEDIHQQQD
notes: Glycine receptor subunit alpha-3, human, UniProt O75311, full-length codon-optimized GLRA3 gene; last residue printed as Asp431 on mature numbering; ICD Lys312-Arg385 not modelled in the maps; Homopentamer reconstituted in peptidisc (NSP peptide scaffold); the models are numbered without it; also called hGlyRα3; glycine receptor α3; source: Sf9 cells (baculovirus, pFastBac1), purified (DDM …)
In the case of B1, the “stoichiometry N” value [1] is reported as 5.
